One experiment has as its system progerin. Put plainly: Western blot of progerin levels in HGPS fibroblasts. The class given is cell-based, human. Conditions: HGPS fibroblasts; for progerin clearance / suppression of progerin accumulation compared with MG132: 10 μM, 48 h (FIG. 1C); for effect on MG132-induced progerin clearance (co-treatment with MG132): 48 h, added together with MG132; for progerin expression levels, inhibitor alone: alone at high doses. Here is the method:
HGPS fibroblasts (AG01972: person, AG11498: person) were obtained from the Coriell Cell Repository. Cells were cultured in Dulbecco's modified Eagle's medium (Life Technologies) supplemented with 15% fetal bovine serum (Life Technologies), 2 mM L-glutamine (Life Technologies) and 1× penicillin-streptomycin (Life Technologies) at 37° C. in a humidified atmosphere containing 5% CO2. […]
(§1) Total fibroblast proteins were extracted in 200 μL of NP40 Cell Lysis buffer (Invitrogen, Carlsbad, Calif.) containing Protease and Phosphatase Inhibitor Cocktail (Thermo Scientific). Alternatively, cells were lysed with urea (8 M urea, 5 mM dithiothreitol, 150 mM NaCl, 50 mM Tris-Cl pH 7.5, protease and phosphatase Inhibitor Cocktail (Thermo Scientific)). Cells were sonicated twice (30 sec each), incubated at 4° C. for 30 minutes and then centrifuged at 10,000 g for 10 minutes. Protein concentration was evaluated with the bicinchoninic acid technique (Pierce BCA Protein Assay Kit), absorbance at 562 nm is measured using nanodrop 1000 (Thermo Fisher Scientific Inc.) Equal amounts of proteins (40 μg) were loaded onto 10% Tis-Glycine gel (Criterion™ XT precast gel) using XT Tricine running Buffer (Biorad, USA). After electrophoresis, gels were electro transferred onto nitrocellulose membranes or Immobilon-FL polyvinylidene fluoride membranes (Millipore), blocked in Odyssey Blocking Buffer diluted 1:1 in PBS for 1 hour at room temperature, and incubated overnight at 4° C. or 2 hours at room temperature with various primary antibodies. Blots were washed with TBS-T buffer [20 mM tris (pH 7.4), 150 mM NaCl, and 0.05% Tween 20] and incubated with 1:10,000 IR-Dye 800-conjugated secondary donkey anti-goat or IR-Dye 700-conjugated secondary anti-mouse antibodies (LI-COR Biosciences) in Odyssey blocking buffer (LI-COR Biosciences). For IR-Dye 800 and IR-Dye 700 detection, an Odyssey Infrared Imaging System (LI-COR Biosciences) was used. GAPDH, α-tubulin or β-actin were used as a total cellular protein loading control.

A further experiment addresses T1, proteasome (Homo sapiens, UniProt P28072+P28074+Q99436).
T1 construct: The proteasome activities were determined in HGPS and control cells; endogenous in cells; host or cells: HGPS fibroblasts (AG01972, AG11498, 5968)
T1 sequence (P28074 60-263): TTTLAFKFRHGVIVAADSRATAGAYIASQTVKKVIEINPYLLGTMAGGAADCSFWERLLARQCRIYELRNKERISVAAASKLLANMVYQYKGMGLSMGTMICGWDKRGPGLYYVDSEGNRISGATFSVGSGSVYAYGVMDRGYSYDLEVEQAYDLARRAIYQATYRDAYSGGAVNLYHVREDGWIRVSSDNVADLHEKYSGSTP
T1 sequence (Q99436 44-277): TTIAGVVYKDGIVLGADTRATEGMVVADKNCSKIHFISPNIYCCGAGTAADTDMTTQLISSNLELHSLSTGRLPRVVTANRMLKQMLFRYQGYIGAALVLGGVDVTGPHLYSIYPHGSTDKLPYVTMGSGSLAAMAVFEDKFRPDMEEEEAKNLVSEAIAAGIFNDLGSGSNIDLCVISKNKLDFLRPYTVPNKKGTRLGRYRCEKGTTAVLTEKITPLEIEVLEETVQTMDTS
T1 sequence (P28072 1-239): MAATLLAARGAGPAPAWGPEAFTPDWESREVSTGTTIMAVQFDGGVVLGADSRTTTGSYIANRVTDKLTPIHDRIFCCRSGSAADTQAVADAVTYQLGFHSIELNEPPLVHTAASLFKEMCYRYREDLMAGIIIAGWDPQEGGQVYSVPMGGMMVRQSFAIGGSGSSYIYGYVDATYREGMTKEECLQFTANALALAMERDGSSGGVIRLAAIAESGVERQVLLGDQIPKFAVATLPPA
Briefly: Proteasome-Glo cell-based proteasome activities (chymotrypsin-like, trypsin-like, caspase-like) in HGPS cells. Particulars: HGPS cells treated with the autophagy inhibitor.

The next experiment deals with SRSF-1. Briefly: Western blot of SRSF-1 in HGPS fibroblasts. The experiment is classed as cell-based, human. Conditions: for SRSF-1 levels, autophagy inhibitor alone: HGPS fibroblasts, chloroquine 50 μM, bafilomycin A1 100 nM. Here is the method: as §1
(In general: In western blotting, separated proteins are transferred to a membrane and probed.)

Square brackets hold non-standard residues; d marks the D form. Peptide text beside a SMILES is read from it. * marks the point of attachment. Nva = CCC[C@H](N)C(=O)O; Cbz = O=C(OCc1ccccc1)*; CH2F = FC*

Description for proteasome: The proteasome activities were determined in HGPS and control cells by using the Proteasome-Glo™ 3-Substrate Cell-Based Assay System (Promega) that allows to measure the chymotrypsin-like, trypsin-like or caspase-like protease activity associated with the proteasome complex in cultured cells. The Proteasome-Glo™ Cell-Based Reagents each contain a specific luminogenic proteasome substrate. These peptide substrates are Suc-LLVY amino luciferin (Succinyl-leucine-leucine-valine-tyro sine-amino luciferin), Z-LRR-amino luciferin (Z-leucine-arginine-arginine-aminoluciferin) and Z-nLPnLD-amino luciferin (Z-norleucine-proline-norleucine-aspartate-amino luciferin) for the chymotrypsin-like, trypsin-like and caspase-like activities, respectively. Cells (10,000 cells/well) were cultured in 100 μl/well in a 96-well plate at 37° C., 5% CO2. The plate was allowed to equilibrate to 22° C. before 100 μl/well of substrate and luciferin detection reagent was added. The contents of the wells were mixed at 700 rpm using a plate shaker for 2 minutes and incubated at room temperature for 10 minutes. Following cleavage by the proteasome, the substrate for luciferase (amino luciferin) is released, allowing the luciferase reaction to proceed and produce light. Luminescence is determined as relative light units (RLUs) using a GloMax-Multi Detection System: Luminometer (Promega, USA).

For `CCC[C@@H](C=O)NC(=O)[C@H](CC(C)C)NC(=O)[C@H](CC(C)C)NC(=O)OCc1ccccc1` [MG115, Z-Leu-Leu-Nva-H] (Cbz-Leu-Leu-[Nva]-aldehyde), in the experiment on progerin, the “progerin clearance / suppression of progerin accumulation compared with MG132” value is on record as “the same efficacy in suppressing progerin accumulation”.
The same measure, in the same setting: with `CC(C)C[C@H](NC(=O)[C@H](CC(C)C)NC(=O)[C@H](CC(C)C)NC(=O)OCc1ccccc1)B(O)O` [MG262, Z-Leu-Leu-Leu-B(OH)2] the entry was “less effective”.
Take `CO/C1=C\C(C)=C\[C@@H](C)[C@@H](O)[C@@H](C)C/C(C)=C/C=C/[C@H](OC)[C@@H]([C@@H](C)[C@@H](O)[C@H](C)[C@@]2(O)C[C@@H](O)[C@H](C)[C@@H](C(C)C)O2)OC1=O` [bafilomycin A1]: in the experiment with progerin, the “effect on MG132-induced progerin clearance (co-treatment with MG132)” value (shortened to “effect”) is reported as “partially inhibited the effect of MG132” and the “progerin expression levels, inhibitor alone” value is listed as “reduced expression levels of progerin”. Further, the three proteasome activities result on proteasome is recorded as “not modified”. For the same molecule, the “SRSF-1 levels, autophagy inhibitor alone” value with SRSF-1 is on record as “decrease SRSF-1 levels”.
Turning to `CC(C)C[C@H](NC(=O)[C@H](Cc1ccccc1)NC(=O)c1cnccn1)B(O)O` [bortezomib], in the experiment with progerin, the “progerin clearance / suppression of progerin accumulation compared with MG132” value is listed as “do not induce progerin clearance”.
Still for that read-out and setting: with `CC(C)C[C@H](NC(=O)[C@H](CCc1ccccc1)NC(=O)CN1CCOCC1)C(=O)N[C@@H](Cc1ccccc1)C(=O)N[C@@H](CC(C)C)C(=O)[C@@]1(C)CO1` [carfilzomib] the entry was “do not induce progerin clearance”.
Take `CC[C@H](C)[C@H](NC(=O)[C@H](CCC(=O)OC)NC(=O)[C@@H](NC(=O)OCc1ccccc1)C(C)C)C(=O)N[C@@H](CC(=O)OC)C(=O)CF` [caspase-6 inhibitor, Z-VEID-FMK] (Cbz-VE(OMe)ID(OMe)-CH2F): the “effect” value in the experiment on progerin is given as “progerin level remained below the HGPS control”.
Take `CCN(CC)CCCC(C)Nc1ccnc2cc(Cl)ccc12` (stereo not drawn) [chloroquine]: in the experiment with progerin, the “progerin expression levels, inhibitor alone” value is reported as “reduced expression levels of progerin”. Besides, the three proteasome activities entry on proteasome is recorded as “not modified”. The “SRSF-1 levels, autophagy inhibitor alone” value in the experiment on SRSF-1 was “decrease SRSF-1 levels”.
As for `CCC(=C/[C@H](C)C/C=C/C(C)=C/[C@@H](C)C(=O)[C@@H](C)[C@H](O)[C@@H](C)C/C(C)=C/C(=O)O)/C=C/[C@@H]1OC(=O)C=C[C@@H]1C` [leptomycin B], the “effect” value in the experiment on progerin was “does not inhibit MG132 induced progerin clearance”.
Turning to `COC(=O)C[C@H](NC(=O)[C@H](C)NC(=O)[C@@H](NC(=O)OCc1ccccc1)C(C)C)C(=O)CF` [pan-caspase inhibitor, Z-VAD-FMK] (Cbz-Val-Ala-Asp(OMe)-CH2F), the “effect” value in the experiment with progerin is reported as “increase of progerin that slightly reaches the control levels”. In addition, in the experiment with SRSF-1 (HGPS cells, co-treatment with MG132), the “SRSF-1 protein expression, added during MG132 treatment” value is “rescue of SRSF-1 protein expression”.
